Results as given in PMC10135057, “Molecular Modification of Kex2 P1’ Site Enhances Expression and Druggability of Fungal Defensin” (Antibiotics, 2023).
“And” between values parts separate entries of the source, which are not always exact repeats. Equal values may be shown once. Read-outs that look alike come from different tables or passages of the source. Bridge positions count the residues as written; N and C are the ends. Ends that are not written are not given here.

What was measured:
S. aureus ATCC 25923 = test: microbe, parasite or virus in culture; type: cell-based, Staphylococcus aureus; details: S. aureus ATCC 25923, CLSI procedure, triplicate, read-out: MIC
Protocol: (§1) The minimal inhibitory concentrations (MICs) assay was performed according to the CLSI procedures with the final peptide concentrations of 256, 128, 64, 32, 16, 8, 4, 2, 1, and 0.5 μg/mL, respectively. All tests were conducted in triplicate.

S. aureus CVCC 546 = test: microbe, parasite or virus in culture; type: cell-based, Staphylococcus aureus; details: S. aureus CVCC 546, CLSI procedure, triplicate, read-out: MIC
Protocol: as §1

S. aureus E48 = test: microbe, parasite or virus in culture; type: cell-based, Staphylococcus aureus; details: S. aureus E48, CLSI procedure, triplicate, read-out: MIC
Protocol: as §1

[1] = test system: S. epidermidis ATCC 12228; test: microbe, parasite or virus in culture; type: cell-based, Staphylococcus epidermidis; details: S. epidermidis ATCC 12228, CLSI procedure, triplicate, read-out: MIC
Protocol: as §1

[2] = test system: Escherichia coli ATCC 25922; test: microbe, parasite or virus in culture; type: cell-based; details: Escherichia coli ATCC 25922, CLSI procedure, triplicate, read-out: MIC
Protocol: as §1

[3] = test system: Staphylococcus aureus ATCC 43300; test: microbe, parasite or virus in culture; type: cell-based; details: S. aureus ATCC 43300, CLSI procedure, triplicate, read-out: MIC
Protocol: as §1

S. aureus ATCC 43300 [4] = test: microbe, parasite or virus in culture; type: cell-based, Staphylococcus aureus; details: S. aureus ATCC 43300; for MIC: Staphylococcus aureus, ATCC43300, read-out: MICa (MIC of drug alone)
Protocol: The effects of combination were evaluated by calculating the FICI. FICI ≤ 0.5 was defined as synergy, 0.5 < FICI ≤ 1 was defined as additivity, 1 < FICI ≤ 4 was defined as indifference, and FICI > 4 was defined as antagonism.

S. aureus ATCC 43300 [5] = test: Bactericidal kinetics (time-killing curves); type: cell-based, Staphylococcus aureus; details: FNZ 1×, 2×, 4× MIC; ampicillin 2× MIC; S. aureus ATCC 43300
Protocol: The S. aureus ATCC 43300 in logarithmic growth stage was diluted to a final concentration of 10^6 CFU/mL. […] Samples were taken at 0, 0.5, 1, 2, 4, 6, 8, 10, 20, and 24 h, serially diluted, and visible colonies were counted on MHA plates.

[6] = test system: Pseudomonas aeruginosa CICC 20625; test: Minimal inhibitory concentration (MIC); type: cell-based; details: CLSI procedure, triplicate
Protocol: as §1

[7] = test system: Salmonella enterica ATCC 13076; test: Minimal inhibitory concentration (MIC); type: cell-based; details: CLSI procedure, triplicate
Protocol: as §1

[8] = test system: G+ bacteria (S. aureus, S. hyicus, S. agalactiae, S. epidermidis); test: MIC, summary over Gram-positive bacteria; type: cell-based; details: range over S. aureus
Protocol: as §1

[9] = test system: Gram-negative bacteria (E. coli, S. enterica, P. aeruginosa); test: MIC, summary over Gram-negative bacteria; type: cell-based
Protocol: as §1

RAW264.7 cells = test: Cytotoxicity, MTT assay; type: cell-based, mouse; details: at 128 μg/mL, n = 3
Description: The MTT assay was used to test the cytotoxicity of FNZ to the RAW 264.7 cells.

S. aureus ATCC 43300 [10] = test: Thermal stability (MIC after heat treatment); type: physicochemical, Staphylococcus aureus; details: MIC vs S. aureus ATCC 43300, triplicate
Protocol: (§2) The tolerance of FNZ to temperature and pH was evaluated. The stability of FNZ in simulated gastric fluid, artificial intestinal fluid and mouse serum was carried out as previously described. […] All assays were conducted in triplicate.

S. aureus ATCC 43300 [11] = test: pH stability (MIC after pH treatment); type: physicochemical, Staphylococcus aureus; details: MIC vs S. aureus ATCC 43300, triplicate
Protocol: as §2

S. aureus ATCC 43300 [12] = test: Salts stability (MIC after incubation with Na+ or Mg2+); type: cell-based, Staphylococcus aureus; details: 37 °C, 1 h, MIC vs S. aureus ATCC 43300, triplicate, read-out: MIC after treatment
S. aureus ATCC 43300 [13] = test: Stability in simulated gastric fluid (MIC after treatment); type: in vitro ADME, Staphylococcus aureus; details: 1 h, MIC vs S. aureus ATCC 43300, triplicate
Protocol: as §2

S. aureus ATCC 43300 [14] = test: Stability in mouse serum (MIC after treatment); type: in vitro ADME, Staphylococcus aureus; details: mouse serum (25%), 1–4 h
Protocol: as §2

## CC1(C)S[C@@H]2[C@H](NC(=O)[C@H](N)c3ccccc3)C(=O)N2[C@H]1C(=O)O [Ampicillin, ampicillin]
S. aureus ATCC 25923; Staphylococcus aureus, ATCC25923
  MIC: 0.25 µg/mL and 0.62 µM
S. aureus CVCC 546; Staphylococcus aureus, CVCC546
  MIC: 0.25 µg/mL and 0.62 µM
S. aureus E48; Staphylococcus aureus
  MIC: 0.25 µg/mL and 0.62 µM
[1]; Staphylococcus epidermidis, ATCC12228
  MIC: 2 µg/mL and 2.48 µM
[2]; ATCC25922
  MIC: 1 µg/mL and 1.24 µM
[3]; Staphylococcus aureus, ATCC43300
  MIC: 2 µg/mL and 2.48 µM
S. aureus ATCC 43300 [4]; checkerboard, 37 °C, 16 h
  MIC: 2 µg/mL
S. aureus ATCC 43300 [4]; checkerboard
  Combination effect with FNZ (in words): synergistic effect
S. aureus ATCC 43300 [4]; combination FNZ + Amp
  FIC: 0.063
S. aureus ATCC 43300 [5]
  Regrowth (rebound of colonies) up to 24 h: rebound situation was observed

## O=C(O)c1cn(C2CC2)c2cc(N3CCNCC3)c(F)cc2c1=O [Cip, ciprofloxacin]
S. aureus ATCC 43300 [4]; checkerboard, 37 °C, 16 h
  MIC: 0.25 µg/mL
S. aureus ATCC 43300 [4]; combination FNZ + Cip, checkerboard, 37 °C, 16 h
  MICc (MIC of drug used in combination): 0.375 µg/mL

## NC[C@H]1O[C@H](O[C@H]2[C@H](O)[C@@H](O[C@H]3O[C@H](CO)[C@@H](O)[C@H](N)[C@H]3O)[C@H](N)C[C@@H]2N)[C@H](O)[C@@H](O)[C@@H]1O [Kan, kanamycin]
S. aureus ATCC 43300 [4]; checkerboard, 37 °C, 16 h
  MICa (MIC of drug alone): 64 µg/mL
S. aureus ATCC 43300 [4]; checkerboard
  Combination effect with FNZ (in words): synergistic effect
S. aureus ATCC 43300 [4]; combination FNZ + Kan
  FIC: 0.008
S. aureus ATCC 43300 [4]; combination FNZ + Kan, checkerboard, 37 °C, 16 h
  MICc (MIC of drug used in combination): 0.5 µg/mL

## FGFGCNGPWNEDDLRCHNHCKSIKGYKGGYCAKGGFVCKCY (disulfide 5-31, 16-38, 20-40) [FNZ]
S. aureus ATCC 25923
  MIC: 1.75 µM
S. aureus CVCC 546
  MIC: 1.75 µM
S. aureus E48
  MIC: 0.88 µM
[1]
  MIC: 1.75 µM
[2]
  MIC: >28.05 µM
[3]
  MIC: 1.75 µM
[6]
  MIC: >28.05 µM
[7]
  MIC: >28.05 µM
[8]
  MICs, G+ bacteria: 4 to 8 µg/mL
[9]
  MICs, Gram-negative bacteria: > 128 µg/mL
S. aureus ATCC 43300 [4]; combination FNZ + Amp
  FIC: 0.016
S. aureus ATCC 43300 [4]; combination FNZ + Cip
  FIC: 0.031
S. aureus ATCC 43300 [4]; combination FNZ + Kan
  FIC: 0.063
S. aureus ATCC 43300 [4]; combination FNZ + Van
  FIC: 0.125
RAW264.7 cells
  Cell viability (survival): 88.56%
S. aureus ATCC 43300 [10]; 20 °C for 1 h
  MIC after treatment: 1.75 µM
S. aureus ATCC 43300 [10]; 40 °C for 1 h
  MIC after treatment: 1.75 µM
S. aureus ATCC 43300 [10]; 60 °C for 1 h
  MIC after treatment: 1.75 µM
S. aureus ATCC 43300 [10]; 80 °C for 1 h
  MIC after treatment: 1.75 µM
S. aureus ATCC 43300 [10]; 100 °C for 1 h
  MIC after treatment: 3.5 µM
S. aureus ATCC 43300 [11]; pH 2
  MIC after treatment: 1.75 µM
S. aureus ATCC 43300 [11]; pH 4
  MIC after treatment: 1.75 µM
S. aureus ATCC 43300 [11]; pH 6
  MIC after treatment: 1.75 µM
S. aureus ATCC 43300 [11]; pH 8
  MIC after treatment: 1.75 µM
S. aureus ATCC 43300 [11]; pH 10
  MIC after treatment: 3.5 µM
S. aureus ATCC 43300 [12]; 50 mM Mg2+
  MIC: 1.75 µM
S. aureus ATCC 43300 [12]; 50 mM Na+
  MIC: 1.75 µM
S. aureus ATCC 43300 [12]; 100 mM Mg2+
  MIC: 1.75 µM
S. aureus ATCC 43300 [12]; 100 mM Na+
  MIC: 1.75 µM
S. aureus ATCC 43300 [12]; 150 mM Mg2+
  MIC: 1.75 µM
S. aureus ATCC 43300 [12]; 150 mM Na+
  MIC: 1.75 µM
S. aureus ATCC 43300 [12]; 300 mM Mg2+
  MIC: 3.5 µM
S. aureus ATCC 43300 [12]; 300 mM Na+
  MIC: 1.75 µM
S. aureus ATCC 43300 [12]; 500 mM Mg2+
  MIC: >7 µM
S. aureus ATCC 43300 [12]; 500 mM Na+
  MIC: 3.5 µM
S. aureus ATCC 43300 [13]
  MIC after treatment: 8 μg/mL and 1.75 μM
S. aureus ATCC 43300 [14]; MIC read-out
  Serum stability (in words): Stable^a
S. aureus ATCC 43300 [14]; MIC vs S. aureus ATCC 43300, triplicate
  MIC after treatment: 8 μg/mL and 1.75 μM
